Activity calls are given as the source filed them. The calls are words filed in the database; no cut-off is given here.
How the values were obtained:
[1] = species: Gallus gallus; assay: Binding affinity to acetylcholine receptor in isolated Gallus gallus (chicken) biventar cervicis muscle assessed as reduction of twitch response to carbachol after washout
[2] = species: Gallus gallus; assay: Binding affinity to acetylcholine receptor in isolated Gallus gallus (chicken) biventar cervicis muscle assessed as reduction of twitch response to carbachol in presence of neostigmine
[3] = species: Gallus gallus; assay: Binding affinity to acetylcholine receptor in isolated Gallus gallus (chicken) biventar cervicis muscle assessed as reduction of twitch response to carbachol at 5 uM up to 10 min
[4] = test system: Electrophorus electricus; assay: (§1) Inhibition of Electrophorus electricus (electric eel) acetylcholinesterase
[5] = as §1
[6] = species: Gallus gallus; assay: Binding affinity to acetylcholine receptor in isolated Gallus gallus (chicken) biventar cervicis muscle assessed as reduction of twitch response to carbachol
[7] = species: Gallus gallus; assay: Binding affinity to acetylcholine receptor in isolated Gallus gallus (chicken) biventar cervicis muscle assessed as reduction of twitch response to carbachol at 1 uM up to 10 min

Row | SMILES | Activity [1] | Activity [2] | Activity [3] | inhibition [4] | Ki [5] | K [6] | Activity [7]
1 | C[C@]12CC[C@H](N3CCCC3)C[C@@H]1CC[C@@H]1[C@@H]2CC[C@]2(C)[C@@H](O)[C@@H](N3CCCCC3)C[C@@H]12 | inactive | inactive | Active | Dose-dependent effect | 620 nM | 0.9 µM | –
2 | CC(=O)O[C@H]1[C@@H](N2CCCCC2)C[C@H]2[C@@H]3CC[C@H]4C[C@@H](N5CCCC5)CC[C@]4(C)[C@H]3CC[C@@]21C | inactive | inactive | – | Dose-dependent effect | 980 nM | 0.2 µM | Active

Reference: ChEMBL document CHEMBL3045175, “Synthesis and Neuromuscular Blocking Activity of 16-Piperidino Epiandrosterone Derivatives” (Med Chem Res, 2005)
